Results reported in patent publication US8518958B2, “Pyrido [2,3-D] pyrimidines and their use as kinase inhibitors” (Forma Therapeutics, Inc., priority 2006, dated 2013).

Legend:
[1] = molecular target: C-Raf Raf-1 (truncated), active (Homo sapiens, UniProt P04049, Y340D/Y341D); assay: C-Raf kinase inhibition (MAPH assay / IMAP assay); conditions: read-out: Biochemical IC50 C-Raf
From the text: We characterized the in vitro inhibitory activity against protein kinases of compounds of the present invention by determining their IC50 values (see Table 2).
Kinase: C-Raf Raf-1 (truncated), active (Upstate; cat. no. 14-352)
Reaction Temperature: room temperature
Assay Plate: 96 well U bottom plate (Greiner, 650161)
MultiScreen-PH Plate: 96 well MAPH Filter Plates (Millipore, MAPHNOB50)
Filter Washing Solution: 0.75% H3PO4
Scintillation Liquid: Supermix Liquid Scintillator (PerkinElmer, 1200-439)
Negative Control (C−): 100 mM EDTA, no inhibitor
Positive Control (C+): no inhibitor
Reaction Buffer (Final Concentration):
Final Assay Concentrations:
Kinase: Use kinase conc. yielding 10% ATP turnover as determined in titration experiment.
Adenosine 5′-[γ-^33P]triphosphate: 12.5 μCi/ml (Amersham Biosciences, BF1000)
Substrate: Myelin Basic Protein 57.8 μM (Invitrogen, 13228-010)
Pipetting Sequence: • 1) Add 10 μl 4-fold concentrated substrate+4-fold concentrated ATP in 3-fold concentrated reaction buffer to each well of assay plate • 2) Add 10 μl […] concentrated inhibitor in 4% DMSO in H2O to each well except to C− and C+ wells (starting point: final inhibitor concentration 10 μM; IC50 determination based on dilution series) • 3) Add 10 μl 4% DMSO in H2O to C− and C+ wells • 4) Add 10 μl 500 mM EDTA in H2O to C− wells • 5) Add 10 μl 50 μCi/ml adenosine 5′-[γ-^33P]triphosphate in H2O to each well • 6) Add 10 μl […] concentrated kinase in Reaction Buffer to each well • 7) Incubate 1 hr at room temperature • 8) Add 10 μl 50 mM EDTA in H2O to each well except to C− wells • 9) Prepare MAPH plates by adding 200 μl 0.75% H3PO4 to each well • 10) Exhaust 0.75% H3PO4 using Millipore vacuum station • 11) Add 60 μl 0.75% H3PO4 to each well of MAPH filter plate • 12) Transfer 30 μl sample per well from assay plate to corresponding well of MAPH filter plate • 13) Incubate 30 min at room temperature • 14) Wash each well of MAPH filter plates 3× with 200 μl 0.75% H3PO4 using Millipore vacuum station • 15) Add 20 μl scintillation liquid to each well of MAPH filter plate • 16) Seal MAPH filter plate • 17) Store MAPH filter plate 30 min in darkness • 18) Quantify radioactivity using scintillation counter (MicroBeta, Perkin-Elmer)
Reaction Volume: 8.0108 μl
IMAP Incubation Time: 60 min
Assay Plate: 384 well U bottom, PP, black, low volume (Corning, 3676)
Compound Plate: 384 well U bottom, PS (Falcon, 3995)
IMAP Binding Buffer A: Molecular Devices, R7282
IMAP Binding Buffer B: Molecular Devices, R7283
IMAP Binding Reagent: Molecular Devices, R7207
Negative Control (C−): no kinase, no inhibitor
Reation buffer: 20 mM Hepes, pH 7.5 • 1 mM DTT • 10 mM MnCl2 • 0.01% Brij35
Kinase: Kinase conc. yielding 50% substrate turnover as determined in titration experiment • c-Raf (Upstate 14-352)
Substrate: 5F1-SGQLIDSMANSFV-NH2 400 nM (jpt Peptide Technologies GmbH, Berlin, Germany)
IMAP Binding Solution: 75% IMAP Binding Buffer A • 25% IMAP Binding Buffer B • IMAP Binding Reagent 1:800
Pipetting Sequence: • 1) Add 6 μl 1.33-fold concentrated substrate+1.33-fold concentrated ATP in 1-fold concentrated reaction buffer to each well of assay plate • 2) Add 10.8 nl 740-fold concentrated inhibitor in 100% DMSO to each well except to C− and C+ wells using pintool (CyBio, Jena, Germany) (starting point: final inhibitor concentration 10 μM; IC50 determination based on dilution series) • 3) Add 10.8 nl 100% DMSO to C− and C+ wells using pintool • 4) Add 2 μl reaction buffer to C− wells • 5) Add 2 μl 4-fold concentrated kinase in reaction buffer to each well except C− wells • 6) Incubate according to reaction time at room temperature • 7) Add 15 μl IMAP binding solution to each well • 8) Incubate according to IMAP incubation time at room temperature • 9) Measure fluorescence polarization (Analyst GT, Molecular Devices)

[2] = molecular target: B-Raf delta1-415 (Homo sapiens, UniProt P15056); assay: B-Raf kinase inhibition (MAPH filter plate, 33P-ATP, MEK1 substrate); conditions: read-out: Biochemical IC50 B-Raf
Sequence of B-Raf delta1-415 (P15056 416-766): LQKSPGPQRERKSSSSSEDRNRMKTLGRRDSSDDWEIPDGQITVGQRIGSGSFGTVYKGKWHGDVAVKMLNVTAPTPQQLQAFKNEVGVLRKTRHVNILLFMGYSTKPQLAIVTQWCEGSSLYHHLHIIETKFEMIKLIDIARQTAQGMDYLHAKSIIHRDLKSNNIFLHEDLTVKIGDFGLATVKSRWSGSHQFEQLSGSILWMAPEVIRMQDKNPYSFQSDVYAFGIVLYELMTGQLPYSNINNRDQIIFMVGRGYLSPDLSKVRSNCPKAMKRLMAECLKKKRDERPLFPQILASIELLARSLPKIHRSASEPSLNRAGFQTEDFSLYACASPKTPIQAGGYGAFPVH
Summary of the method: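 Radiometric filter-binding assay with B-Raf delta1-415 at a level giving 50% turnover, MEK1 substrate and 33P-ATP (12.5 μCi/ml) in 20 mM Mops pH 7.0 with Mg/Mn, 1 h at room temperature. Inhibitor dilution series from 10 μM; EDTA-stopped reactions captured on phosphocellulose filters, counted by scintillation for IC50.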

[3] = tested on: HT-29 tumor cells; assay: Anti-proliferative activity, SRB assay; type: cell-based, human; conditions: Homo sapiens, HT-29, 72 h, 72 hours exposure, read-out: CELLULAR IC50 HT-29
Summary of the method: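 Cells at 3,000-15,000/well, plated 24 h before compound, exposed to a concentration range for 72 hours. Proliferation measured by SRB staining after cold TCA fixation, absorbance at OD570; IC50 estimated from % inhibition versus DMSO-treated cells.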

Sequence of C-Raf Raf-1 (truncated), active (P04049 306-648 Y340D/Y341D): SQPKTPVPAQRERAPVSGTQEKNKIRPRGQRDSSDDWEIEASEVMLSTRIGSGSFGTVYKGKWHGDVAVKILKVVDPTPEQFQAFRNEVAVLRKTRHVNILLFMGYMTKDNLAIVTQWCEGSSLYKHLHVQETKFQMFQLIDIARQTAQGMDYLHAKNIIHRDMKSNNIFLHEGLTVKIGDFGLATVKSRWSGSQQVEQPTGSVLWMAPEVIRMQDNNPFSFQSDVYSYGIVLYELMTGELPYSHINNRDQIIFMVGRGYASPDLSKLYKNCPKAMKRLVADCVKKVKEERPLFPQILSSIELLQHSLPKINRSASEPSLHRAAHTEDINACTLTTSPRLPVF

| IC50 [1] [nM] | IC50 [2] [nM] | IC50 [3] [nM] | SMILES |
| --- | --- | --- | --- |
| < 100 | > 1000 | < 10000 | COn1c(=O)c(-c2c(Cl)cccc2Cl)cc2cnc(Nc3cc(CO)ccc3F)nc21 [Compound 27, 6-(2,6-Dichlorophenyl)-2-(2-fluoro-5-(hydroxymethyl)phenylamino)-8-methoxy-pyrido[2,3-d]pyrimidin-7-one] |
| < 100 | > 1000 | < 10000 | COn1c(=O)c(-c2cc(NC(=O)c3ccc(Cl)cc3)ccc2Cl)cc2cnc(Nc3ccccc3)nc21 [Compound 37] |
| < 100 | < 500 | < 1000 | COc1cccc(Cl)c1-c1cc2cnc(Nc3ccc(N4CCN(C)CC4)cc3)nc2n(OC)c1=O [Compound 39, 6-(2-Chloro-6-methoxyphenyl)-8-methoxy-2-(4-(4-methylpiperazino)-phenylamino)-pyrido[2,3-d]pyrimidin-7-one] |
| < 1000 | < 1000 | < 1000 | COn1c(=O)c(-c2c(F)cccc2C(F)(F)F)cc2cnc(Nc3ccc(N4CCN(C)CC4)cc3)nc21 [Compound 53, 6-(2-Fluoro-6-trifluoromethyl-phenyl)-8-methoxy-2-(4-(4-methylpiperazino)-phenylamino)-pyrido[2,3-d]pyrimidin-7-one] |
| < 100 | < 100 | < 1000 | COc1cccc(Nc2ncc3cc(-c4c(Cl)cccc4Cl)c(=O)n(OC)c3n2)c1 [Compound 3, 6-(2,6-Dichlorophenyl)-8-methoxy-2-(3-methoxyphenylamino)-pyrido[2,3-d]pyrimidin-7-one] |
| < 500 | < 100 | < 1000 | COn1c(=O)c(-c2c(Cl)cccc2Cl)cc2cnc(Nc3cccc(SC)c3)nc21 [Compound 2, 6-(2,6-Dichlorophenyl)-8-methoxy-2-(3-methylthiophenylamino)-pyrido[2,3-d]pyrimidin-7-one] |
| < 100 | < 100 | < 1000 | COn1c(=O)c(-c2c(Cl)cccc2Cl)cc2cnc(Nc3ccc(CCO)cc3)nc21 [Compound 17, 6-(2,6-Dichlorophenyl)-8-methoxy-2-(4-(2-hydroxyethyl)-phenylamino)-pyrido[2,3-d]pyrimidin-7-one] |
| < 1000 | < 1000 | < 10000 | COn1c(=O)c(-c2ccc(Cl)c(Cl)c2)cc2cnc(Nc3ccc(N4CCN(C)CC4)cc3)nc21 [Compound 18, 6-(3,4-Dichlorophenyl)-8-methoxy-2-(4-(4-methylpiperazino)-phenylamino)-pyrido[2,3-d]pyrimidin-7-one] |
| < 100 | < 5000 | < 10000 | COn1c(=O)c(-c2ccccc2)cc2cnc(Nc3cccc(CO)c3)nc21 [Compound 43, 2-(3-Hydroxymethylphenylamino)-8-methoxy-6-phenyl-pyrido[2,3-d]pyrimidin-7-one] |
| < 100 | < 500 | < 1000 | COn1c(=O)c(-c2c(Cl)cccc2Cl)cc2cnc(Nc3cccc(S(N)(=O)=O)c3)nc21 [Compound 4, 6-(2,6-Dichlorophenyl)-8-methoxy-2-(3-sulfamoylphenylamino)-pyrido[2,3-d]pyrimidin-7-one] |
| < 100 | < 500 | < 1000 | COc1cccc(Nc2ncc3cc(-c4c(C)cccc4C)c(=O)n(OC)c3n2)c1 [Compound 69, 6-(2,6-Dimethylphenyl)-8-methoxy-2-(3-methoxyphenyl)-amino-pyrido[2,3-d]pyrimidin-7-one] |
| < 10000 | < 10000 | > 10000 | CC(C)(C)On1c(=O)c(-c2ccccc2Cl)cc2cnc(Nc3ccccc3)nc21 [Compound 63, 6-(2-Chlorophenyl)-8-(1,1-dimethyl)ethyloxy-2-phenylamino-pyrido[2,3-d]pyrimidin-7-one] |
| < 100 | < 500 | < 10000 | COn1c(=O)c(-c2cc(NC(C)=O)ccc2Cl)cc2cnc(Nc3ccccc3)nc21 [Compound 59] |
| < 500 | < 10000 | < 10000 | COc1ccc(OC)c(-c2cc3cnc(Nc4ccccc4)nc3n(OC)c2=O)c1 [Compound 60] |
| < 100 | < 100 | < 1000 | COc1cccc(Nc2ncc3cc(-c4c(Cl)cccc4Cl)c(=O)n(OCCO)c3n2)c1 [Compound 73, 6-(2,6-Dichlorophenyl)-8-(2-hydroxyethyl)oxy-2-(3-methoxyphenyl)amino-pyrido[2,3-d]pyrimidin-7-one] |
| < 100 | < 500 | < 10000 | COn1c(=O)c(-c2c(Cl)cccc2Cl)cc2cnc(Nc3cc(C(=O)O)n(C)c3)nc21 [Compound 54, 2-(5-Carboxy-1-methyl-pyrrol-3-yl)-amino-6-(2,6-dichlorophenyl)-8-methoxy-pyrido[2,3-d]pyrimidin-7-one] |
| < 100 | < 100 | < 1000 | CN1CCN(c2ccc(Nc3ncc4cc(-c5c(F)cccc5Cl)c(=O)n(OCC5CC5)c4n3)cc2)CC1 [Compound 52, 6-(2-Chloro-6-fluorophenyl)-8-cyclopropylmethoxy-2-(4-(4-methylpiperazino)-phenylamino)-pyrido[2,3-d]pyrimidin-7-one] |
| < 100 | > 1000 | < 10000 | O=c1c(-c2ccccc2Cl)cc2cnc(Nc3ccccc3)nc2n1OCC1CC1 [Compound 49, 6-(2-Chlorophenyl)-8-cyclopropylmethoxy-2-phenylamino-pyrido[2,3-d]pyrimidin-7-one] |
| < 100 | < 100 | < 1000 | COn1c(=O)c(-c2c(Cl)cccc2Cl)cc2cnc(Nc3cccc(CO)c3)nc21 [Compound 1, 6-(2,6-Dichlorophenyl)-2-(3-hydroxymethylphenylamino)-8-methoxy-pyrido[2,3-d]pyrimidin-7-one] |
| < 100 | > 10000 | < 1000 | COn1c(=O)c(-c2cccc(NC(=O)c3ccccc3)c2Cl)cc2cnc(Nc3ccccc3)nc21 [Compound 28] |
| < 100 | < 100 | < 1000 | COn1c(=O)c(-c2c(F)cccc2Cl)cc2cnc(Nc3cccc(CO)c3)nc21 [Compound 15, 6-(2-Chloro-6-fluorophenyl)-8-methoxy-2-(3-hydroxymethylphenylamino)-pyrido[2,3-d]pyrimidin-7-one] |
